The test system of one experiment is LPS Re595. The experiment in a line: liver uptake and serum residence of 125I-LPS after intravenous injection in mice. The class given is in vivo, Wild-type (C57B1/6) mice. Conditions: for effect on behavior of 125I-LPS after intravenous injection (liver uptake, residence in blood): 125I-LPS Re595 10 μg/kg, LPS:apoCI 1:0.2 to 1:16, LPS:albumin 1:16. How it is done:
Wild-type (C57B1/6) mice were anesthetized and, via the lower vena cava, injected intravenously with radioactively (^125I) labeled LPS Re595 (10 μg/kg) without, and with, respectively, apoCI (molar ratio LPS:apoCI=1:0.2, 1:0.5, 1:1 and 1:16) and bovine serum albumin (molar ratio LPS:albumin=1:16). Blood samples and bits of liver tissue were taken at t=2, 5, 10, 20 and 30 minutes after injection. After this, the mice were sacrificed. Next, the amounts of LPS in the blood sera and liver samples were quantified on the basis of the amount of radioactive radiation. Also, a serum sample was taken 30 minutes after injection of LPS:apoCI (1:1) and subjected to agarose gel electrophoresis to study the distribution of the ^125I-LPS over the various lipoproteins. Lipoprotein lipids were visualized with the aid of Sudan Black, and ^125I-LPS by means of autoradiography. In FIGS. 6A and 6B the amounts of ^125I-LPS in the liver and the blood serum, respectively, are plotted as a percentage of the injected dose against time (n=3.+−.SEM). […] Already at a molar ratio of 1:1, the uptake of LPS by the liver was reduced 8-fold. The strong binding of apoCI to LPS (see Example 2) therefore proves to be relevant in the blood too.

For experiment [1], the system named is LPS Re595 (Salmonella minnesota). Put plainly: agarose gel electrophoresis of 125I-LPS incubated with human apoCI. The format is binding. As to the method:
LPS Re595 (Salmonella minnesota) was radioactively labeled with ^125I as described (Rensen, 1997) and incubated (30 min at 37° C.) with increasing amounts of human apoCI which has been isolated from human blood (Tournier, 1984). Next, the incubation volumes were transferred to an agarose gel (position Rf 0), after which, for 2 hours, an electrophoretic field was applied (so-called agarose gel electrophoresis). After electrophoresis, the ^125I-LPS was visualized by means of autoradiography. Through its negative charge, LPS tends to migrate to the positive pole (anode); which, however, is prevented in that the LPS forms large micellary structures that cannot pass the relatively small pores formed by the agarose matrix.
Also, the effect of increasing amounts of LPS on the migration of a fixed amount of apoCI was determined. For that purpose, the apoCI was visualized in the gel after electrophoresis by means of immunoblotting with a horseradish peroxidase-conjugated antibody directed against human apoCI (Academy Bio-Medical Company, Houston, USA; cat. 31H-G1b).

In the next experiment the test system is TNFα. The experiment in a line: LPS-induced TNFα response in mice. The class given is in vivo, Wild-type (C57B1/6) mice. As to the method:
Wild-type (C57B1/6) mice were injected, by way of the tail vein, with LPS Re595 (25 μg/kg) without, and with, apoCI (molar ratio LPS:apoCI=1:5). Blood samples were taken at t=0, 30, 60, 90, 120 and 180 minutes after injection. In the samples, subsequently, the amount of TNFα was quantified with the aid of a mouse-TNFα specific ELISA according to the accompanying instructions (Immunosource, Halle, Belgium, cat. no. BMS607MST), and the amounts of TNFα in the blood plasma were subsequently plotted against time.

For the next experiment, the system named is LPS. The experiment in a line: LPS-induced inhibition of apolipoprotein-specific sandwich ELISA. The format is binding. How it is done:
The apoCI level in blood plasma can be established in any suitable manner. Preferably, the apoCI level is determined with a sandwich Enzyme-Linked ImmunoSorbent Assay (sandwich ELISA). To this end, for instance 96-wells plates (medium-binding plates; Costar) are coated with a (10,000-fold dilution of a) polyclonal antibody to human apoCI generated in goat (goat-anti human apoCI; Academy Bio-Medical Company, Houston, USA; cat. 31A-Glb). Next, human blood plasma or serum is added (100,000-300,000-fold dilution), whereby the apoCI present therein is quantitatively bound by this primary antibody. […] The HRP is subsequently quantified by means of a stain reaction with 3,3′,5,5′-tetramethylbenzidine (TMB) as substrate, and the stain intensity is compared with a calibration curve which is constructed with pure human apoCI (Labconsult, Brussels, Belgium; cat. A50366H).
A particular amount of human apoCI (0.75 ng/mL) was incubated with LPS in increasing molar ratios, after which the apoCI concentration was determined with the aid of the human apoCI-specific sandwich ELISA as described above under F. The LPS-induced inhibition of the stain reaction from which the apoCI concentration is read, was determined as a percentage of the maximum staining in the absence of LPS (n=2.+−.SEM) (FIG. 3). […]
(In general: In an ELISA, binding on a coated surface is turned into a signal by an enzyme label.)

Experiment [2] deals with FITC-LPS Re595. Put plainly: monomerization of FITC-LPS by murine plasma with different apoCI levels. The class given is biochemical, mouse. How it is done:
We have determined the effect of the apoCI level in murine plasma on monomerization of FITC-LPS as described in Example 2. For that purpose, FITC-LPS was incubated with plasma that had been isolated from wild-type mice, genetically modified mice which are deficient for apoCI (apocl^−/−), or genetically modified mice which express the human apoCI hemizygote (APOC1^+/0) or homozygote (APOC1^+/+).
FITC-LPS Re595 (100 ng) was incubated with plasma (0.125%) isolated from the blood of the various mouse types, after which the occurrence of fluorescence was followed in time with the aid of a fluorimeter. The expression of human apoCI in mouse plasma led to an apoCI-dose dependent increase of the FITC-LPS monomerization, which was 32% at a maximum. […] This indicates not only that mouse-apoCI, like human apoCI, is capable of monomerizing LPS, but especially also that the endogenous presence of apoCI contributes for a considerable part to the total LPS-disaggregated capacity of mouse plasma.

Experiment [3] deals with FITC-LPS Re595. Put plainly: monomerization of FITC-LPS by pure apolipoprotein (fluorescence dequenching). The format is biochemical. Conditions: FITC-LPS Re595 100 ng, molar ratios 1:1, 1:5, 1:10 and 1:20. As to the method:
Finally, the effect of apoCI on the monomerization rate of LPS was studied. […] FITC-LPS Re595 (100 ng) was incubated with pure human apoCI (in molar ratios 1:1, 1:5, 1:10 and 1:20), after which the occurrence of fluorescence was followed in time with the aid of a fluorimeter.

Entries after “also recorded” stand apart in the source; their conditions may differ.

As for “Bovine serum albumin: bovine serum albumin used as control protein [reference compound]”, the “effect on behavior of 125I-LPS after intravenous injection (liver uptake, residence in blood)” value with LPS Re595 is “not effective”.
Consider “TPDVSSALDKLKEFGNTLEDKARELISRIKQSELSAKMREWFSETFQKVKEKLKIDS (human apoCI peptide) [human apolipoprotein CI, 57 amino acids, 6.6 kDa, purified from human blood]”, for which the “effect on behavior of 125I-LPS after intravenous injection (liver uptake, residence in blood)” value with LPS Re595 is “inhibit the decrease of LPS from the blood strongly and dose-dependently; also recorded: strongly reducing the uptake of LPS by the liver”. Moreover, the “reduction of uptake of LPS by the liver” value in the experiment with LPS Re595 (molar ratio LPS:apoCI 1:1, 125I-LPS Re595 10 μg/kg intravenously) is 8 fold. The “migration of 125I-LPS in agarose gel” value in experiment [1] (0.5 molecules of apoCI with respect to 1 molecule of LPS, incubated 30 min at 37° C., 2 hours electrophoresis) is reported as “complete migration of the LPS to the positive pole”. Besides, the “migration of apoCI in agarose gel on binding of LPS” value in experiment [1] (fixed amount of apoCI, increasing amounts of LPS, immunoblotting) is “accelerated migration of apoCI to the positive pole”. Further, the “increase of the LPS-induced TNF level versus LPS alone” value in the experiment on TNFα (LPS Re595 25 μg/kg with apoCI, molar ratio 1:5) was “fourfold”. For the same molecule, in the experiment with TNFα (LPS Re595 25 μg/kg with apoCI, molar ratio LPS:apoCI 1:5, tail vein, versus 2.8 for LPS alone), the “LPS-induced TNF level in blood plasma” value is on record as 10.8 ng/mL. Besides, in the experiment on TNFα (equal amount of apoCI without LPS), the “TNFα induction by apoCI without LPS” value is on record as “no TNFα inducing effect”. The “LPS-induced inhibition of the staining reaction of apoCI-specific sandwich ELISA” value in the experiment with LPS (200-fold molar excess of LPS to apoCI, apoCI 0.75 ng/mL, percentage of maximum staining in absence of LPS) is listed as “more than 40%”. The “increase of the FITC-LPS monomerization by expression of human apoCI in mouse plasma” value with FITC-LPS Re595 [2] (plasma 0.125% of APOC1+/0 or APOC1+/+ mice versus wild-type, maximum) came out at 32%. Further, the “increase in FITC fluorescence (monomerization of LPS)” value was “dose-dependent monomerization of LPS micelles” with FITC-LPS Re595 [3] and “increase strongly in a dose-dependent manner” in the experiment with FITC-LPS Re595 [3] (listed as ApoCI).
On to “apoCIII: apolipoprotein CIII, 79 amino acids, two amphipatic helices, comparable size and structure to apoCI [reference compound]”, for which, in the experiment with LPS (comparable apoCIII-specific sandwich ELISA), the “effect of LPS on quantification with apoCIII-specific sandwich ELISA” value is “no effect”. Also, in the experiment with FITC-LPS Re595 [3], the “increase in FITC fluorescence (monomerization of LPS)” value is given as “hardly effective”.

B1: APDLSGTLESIPDKLKEFGNTLEDKARAAIEHIKQKEILTKTRAWFSEAFGKVKEKLKTTFS (protein)
chain: APDLSGTLESIPDKLKEFGNTLEDKARAAIEHIKQKEILTKTRAWFSEAFGKVKEKLKTTFS
modifications: Muss p.; SITE (1)..(62) primary amino acid sequence of apoCI
notes: endogenous mouse apolipoprotein CI in murine plasma
Turning to B1, in the experiment on FITC-LPS Re595 [2] (plasma 0.125% of apoc1-/- mice versus wild-type), the “reduction of monomerization of FITC-LPS owing to absence of mouse-apoCI” value was found to be 60%.
